The subject of data set [1] is influenza A/FM/1/47(H1N1). Put plainly: microbe, parasite or virus in culture. The format is cell-based, influenza A virus.
For data set [2], the system named is influenza A/Hanfang/359/95(H3N2). Put plainly: microbe, parasite or virus in culture. It counts as cell-based, influenza A virus.
The subject of a further data set is MDCK cells. Nature of the data set: Cytotoxicity assay in MDCK cells monitored by CPE. Particulars: 48 h, Table 1.
Data set [3] deals with influenza B (B/Jifang/13/97). Nature of the data set: Anti-influenza CPE assay in MDCK cells, oseltamivir-null B/Jifang/13/97. It counts as cell-based. Particulars: Influenza B virus, read-out: IC50 B/Jifang/13/97.

Read-outs that look alike come from different tables or passages of the source.

`CC(=O)OCc1ccc(F)c(O[C@@H]2O[C@H](COC(C)=O)[C@@H](OC(C)=O)[C@H](OC(C)=O)[C@H]2OC(C)=O)c1` [Compound 13a, (2R,3R,4S,5R,6S)-2-(Acetoxymethyl)-6-(5-(acetoxymethyl)-2-fluorophenoxy)-tetrahydro-2H-pyran-3,4,5-triyl triacetate]: the IC50 was greater than 130 µM in data set [1] (Influenza A virus, H1N1, MDCK) and greater than 130 µM in data set [2] (Influenza A virus, H3N2, MDCK).
As to `COC(=O)c1cccc(O[C@@H]2O[C@H](COC(C)=O)[C@H](OC(C)=O)[C@H](OC(C)=O)[C@H]2OC(C)=O)c1` [Compound 6b, Methyl 3-((2S,3R,4S,5S,6R)-3,4,5-triacetoxy-6-(acetoxymethyl)-tetrahydro-2H-pyran-2-yloxy)benzoate], the melting point – broadly, the temperature, or range, at which the solid turns liquid – lay in the range of 154 to 156 °C. In addition, the IC50 in data set [1] (Influenza A virus, H1N1, MDCK) is greater than 138 µM. Further, the IC50 in data set [2] (Influenza A virus, H3N2, MDCK) is greater than 138 µM.
Take “Ethyl 3,5-dichloro-4-((2S,3R,4S,5R,6R)-3,4,5-triacetoxy-6-(acetoxymethyl)-tetrahydro-2H-pyran-2-yloxy)benzoate [Compound 3a]”: in the data set with MDCK cells, the TC50 is greater than 362.77 µM. The IC50 in data set [1] and in data set [2] was greater than 363 µM throughout.
In the data set with MDCK cells, `COC(=O)c1ccc(F)c(O)c1` [Compound 1, Methyl 4-fluoro-3-hydroxybenzoate] had a TC50 greater than 1175.50 µM. Further, the “IC50 A/FM/1/47” value in data set [1] is “no activity”. The IC50 is greater than 392 µM in data set [1] (Influenza A virus, H1N1, MDCK) and greater than 1180 µM in data set [2] (Influenza A virus, H3N2, MDCK). Moreover, the “IC50 A/Hanfang/359/95” value in data set [2] is reported as “no activity”.
Regarding `COC(=O)c1ccc(F)c(O[C@@H]2O[C@H](COC(C)=O)[C@H](OC(C)=O)[C@H](OC(C)=O)[C@H]2OC(C)=O)c1` [Compound 1b, Methyl 4-fluoro-3-((2S,3R,4S,5S,6R)-3,4,5-triacetoxy-6-(acetoxymethyl)-tetrahydro-2H-pyran-2-yloxy)benzoate], the IC50 in data set [1] (Influenza A virus, H1N1, MDCK) is greater than 133 µM; in data set [2] (Influenza A virus, H3N2, MDCK) it was 92.4 µM.
Take `OCc1ccc(F)c(O[C@@H]2O[C@H](CO)[C@@H](O)[C@H](O)[C@H]2O)c1` [Compound 14a, (2S,3R,4S,5S,6R)-2-(2-Fluoro-5-(hydroxymethyl)phenoxy)-6-(hydroxymethyl)-tetrahydro-2H-pyran-3,4,5-triol]: the TC50 in the data set on MDCK cells is greater than 657.31 µM. The IC50 in data set [1] (Influenza A virus, H1N1, MDCK) was greater than 657 µM; in data set [2] (Influenza A virus, H3N2, MDCK), greater than 657 µM.
In turn, `COC(=O)c1c(F)cccc1O[C@@H]1O[C@H](COC(C)=O)[C@H](OC(C)=O)[C@H](OC(C)=O)[C@H]1OC(C)=O` [Compound 9b, Methyl 2-fluoro-6-((2S,3R,4S,5S,6R)-3,4,5-triacetoxy-6-(acetoxymethyl)-tetrahydro-2H-pyran-2-yloxy)benzoate] showed a melting point of 130 to 132 °C. The same compound had an IC50 in data set [1] (Influenza A virus, H1N1, MDCK) of 66.6 µM. Further, the IC50 in data set [3] is greater than 133 µM. In addition, the IC50 in data set [2] (Influenza A virus, H3N2, MDCK) was greater than 133 µM.
In turn, `COC(=O)c1ccc(N)c(O[C@@H]2O[C@H](COC(C)=O)[C@@H](OC(C)=O)[C@H](OC(C)=O)[C@H]2OC(C)=O)c1` [Compound 4a, Methyl 4-amino-3-((2S,3R,4S,5R,6R)-3,4,5-triacetoxy-6-(acetoxymethyl)-tetrahydro-2H-pyran-2-yloxy)benzoate] came in with a melting point of 126 to 128 °C. Moreover, the IC50 in data set [1] (Influenza A virus, H1N1, MDCK) was 119 µM. The compound further displayed an IC50 in data set [2] (Influenza A virus, H3N2, MDCK) greater than 134 µM.
For the compound `COC(=O)c1c(F)cccc1O[C@@H]1O[C@H](COC(C)=O)[C@@H](OC(C)=O)[C@H](OC(C)=O)[C@H]1OC(C)=O` [Compound 9a, Methyl 2-fluoro-6-((2S,3R,4S,5R,6R)-3,4,5-triacetoxy-6-(acetoxymethyl)-tetrahydro-2H-pyran-2-yloxy)benzoate], the melting point is 130 to 132 °C. This compound yielded an IC50 in data set [1] (Influenza A virus, H1N1, MDCK) of 34.5 µM. For the same compound, the IC50 in data set [3] was greater than 44.4 µM. The same compound yielded an IC50 in data set [2] (Influenza A virus, H3N2, MDCK) greater than 44.4 µM.
Regarding `COC(=O)c1ccc(O[C@@H]2O[C@H](COC(C)=O)[C@@H](OC(C)=O)[C@H](OC(C)=O)[C@H]2OC(C)=O)c(F)c1` [Compound 7a, Methyl 3-fluoro-4-((2S,3R,4S,5R,6R)-3,4,5-triacetoxy-6-(acetoxymethyl)-tetrahydro-2H-pyran-2-yloxy)benzoate], the melting point was in the range of 121 to 123 °C. The compound further displayed an IC50 in data set [1] (Influenza A virus, H1N1, MDCK) greater than 133 µM. The compound further had an IC50 in data set [2] (Influenza A virus, H3N2, MDCK) of 103 µM.
In turn, `CC(=O)OC[C@H]1O[C@@H](Oc2cccc(F)c2C)[C@H](OC(C)=O)[C@@H](OC(C)=O)[C@H]1OC(C)=O` [Compound 10b, (2R,3S,4S,5R,6S)-2-(Acetoxymethyl)-6-(3-fluoro-2-methylphenoxy)-tetrahydro-2H-pyran-3,4,5-triyl triacetate] yielded a melting point of 127 to 129 °C. In data set [1] (Influenza A virus, H1N1, MDCK), this compound displayed an IC50 greater than 52.2 µM. The IC50 in data set [3] amounted to 39.4 µM. The IC50 in data set [2] (Influenza A virus, H3N2, MDCK) was 48.7 µM.
In the case of `CC(=O)OC[C@H]1O[C@@H](Oc2ncccc2F)[C@H](OC(C)=O)[C@@H](OC(C)=O)[C@@H]1OC(C)=O` [Compound 12a, (2R,3R,4S,5R,6S)-2-(Acetoxymethyl)-6-(3-fluoropyridin-2-yloxy)-tetrahydro-2H-pyran-3,4,5-triyl triacetate], the melting point fell in the range of 140 to 142 °C. The IC50 in data set [1] (Influenza A virus, H1N1, MDCK) came out at 25.2 µM. In data set [3], the IC50 was greater than 50.1 µM. The compound further yielded an IC50 in data set [2] (Influenza A virus, H3N2, MDCK) greater than 50.1 µM.
Consider `COC(=O)c1c(OC)cc(O[C@@H]2O[C@H](COC(C)=O)[C@@H](OC(C)=O)[C@H](OC(C)=O)[C@H]2OC(C)=O)cc1OC` [Compound 2a, Methyl 2,6-dimethoxy-4-((2S,3R,4S,5R,6R)-3,4,5-triacetoxy-6-(acetoxymethyl)-tetrahydro-2H-pyran-2-yloxy)benzoate], for which the melting point was 121 to 123 °C. In data set [1] (Influenza A virus, H1N1, MDCK), the IC50 amounted to 11.6 µM. Besides, the IC50 in data set [3] is 6.25 µM. In data set [2] (Influenza A virus, H3N2, MDCK), this compound gave an IC50 greater than 13.7 µM.
`COC(=O)c1ccc(O[C@@H]2O[C@H](COC(C)=O)[C@H](OC(C)=O)[C@H](OC(C)=O)[C@H]2OC(C)=O)c(F)c1` [Compound 7b, Methyl 3-fluoro-4-((2S,3R,4S,5S,6R)-3,4,5-triacetoxy-6-(acetoxymethyl)-tetrahydro-2H-pyran-2-yloxy)benzoate] registered a melting point of 121 to 123 °C. For the same compound, the IC50 in data set [1] (Influenza A virus, H1N1, MDCK) amounted to 133 µM. Besides, the IC50 in data set [2] (Influenza A virus, H3N2, MDCK) was greater than 133 µM.
`OCc1ccc(O[C@@H]2O[C@H](CO)[C@@H](O)[C@H](O)[C@H]2O)cc1` [Gastrodin]: the TC50 with MDCK cells is greater than 698.62 µM. For the same compound, the IC50 is greater than 232 µM in data set [1] (Influenza A virus, H1N1, MDCK) and 161 µM in data set [2] (Influenza A virus, H3N2, MDCK).
Regarding “Methyl 4-((2S,3R,4S,5R,6R)-3,4,5-triacetoxy-6-(acetoxymethyl)-tetrahydro-2H-pyran-2-yloxy)benzoate [Compound 5a]”, the TC50 in the data set with MDCK cells is 232.53 µM. Besides, the IC50 in data set [1] is greater than 134 µM; in data set [2] it was 93.6 µM.
Turning to `CC(=O)OC[C@H]1O[C@@H](Oc2ccncc2)[C@H](OC(C)=O)[C@@H](OC(C)=O)[C@@H]1OC(C)=O` [Compound 11a, (2R,3R,4S,5R,6S)-2-(Acetoxymethyl)-6-(pyridin-4-yloxy)-tetrahydro-2H-pyran-3,4,5-triyl triacetate], the melting point was in the range of 132 to 134 °C. In data set [1] (Influenza A virus, H1N1, MDCK), the IC50 was 52.2 µM. Besides, the IC50 in data set [3] was greater than 52.2 µM. Further, in data set [2] (Influenza A virus, H3N2, MDCK), the IC50 amounted to 40.5 µM.
Compound `CC(=O)OC[C@H]1O[C@@H](Oc2cccc(F)c2C)[C@H](OC(C)=O)[C@@H](OC(C)=O)[C@@H]1OC(C)=O` [Compound 10a, (2R,3R,4S,5R,6S)-2-(Acetoxymethyl)-6-(3-fluoro-2-methylphenoxy)-tetrahydro-2H-pyran-3,4,5-triyl triacetate] came in with a melting point of 127 to 129 °C. In data set [1] (Influenza A virus, H1N1, MDCK), this compound showed an IC50 greater than 146 µM. In data set [2] (Influenza A virus, H3N2, MDCK), this compound showed an IC50 greater than 146 µM.

Values taken from PMC6270409, “Synthesis and Anti-Influenza Virus Activities of a Novel Class of Gastrodin Derivatives” (Molecules, 2013).
